Assay results reported in patent US20100105610A1, “Methods of Inhibiting Tumor Cell Aggressiveness Using the Microenvironment of Human Embryonic Stem Cells” (CHILDREN'S MEMORIAL HOSPITAL, priority 2006, published 2010).

Assays:
Format in all cases: cell-based, human
C8161 cells [1] = assay: Vasculogenic mimicry of C8161 cells; conditions: C8161 cells treated with ALK 4/5/7 inhibitor
C8161 cells [2] = assay: Membrane Invasion Culture System (MICS) invasion assay; conditions: C8161 cells treated with ALK 4/5/7 inhibitor
Description: Bars represent the mean, normalized, invasion indices±standard deviations.
The aggressiveness of tumor cells is correlated with their ability to invade through the extracellular matrix; thus, the effect of hESC microenvironments on melanoma cell invasion was investigated.
The Membrane Invasion Culture System (MICS) chamber is used to evaluate the degree of tumor cell invasion through matrices in vitro (both stimulated and unstimulated) as described previously.

Nodal = Nodal protein expression, Western blot
Method: (§1) Protein lysates were prepared and quantified as previously described in Hess et al., 2001, Cancer Res. 61:3250-3255. Equal amounts of protein were separated by SDS-polyacrylamide gel electrophoresis under reducing conditions, and the resolved proteins were transferred onto Immobilon-P membranes (Millipore Corp., Bedford, Mass.). Membranes were blocked in 1% TBS, 0.1% Tween 20 (TBS-T) and 5% dry milk powder or 3% gelatin (for Nodal Westerns). Blots were incubated with anti-Nodal or anti-Lefty antibodies (Polyclonal rabbit anti-Nodal (H-110) 1:500 Santa Cruz Biotechnology, Santa Cruz, Calif.; Polyclonal goat anti-Lefty 1:500 R&D Systems, Minneapolis, Minn.), washed in TBS-T, and incubated with the appropriate horseradish peroxidase-labeled secondary antibody. Secondary antibodies were detected by enhanced chemiluminescence (Super Signal; Pierce, Rockford, Ill.) and exposure to autoradiography film (Molecular Technologies, St Louis, Mo.). Nodal protein was detected as two major bands at ˜48 and ˜35 kDa representing precursor and pro-Nodal respectively. Nodal often appeared as multiple bands, likely due to degradation of protein modifications. All experiments were done at least three times.
Conditioned matrices were prepared using hESCs, melanocytes, myoepithelial cells, amniotic fluid derived stem cells, or trophoblast cells on growth factor-reduced Matrigel (14 mg/mL; BD Biosciences) as previously described. Postovit et al., 2006, Stem Cells 24: 501-505. In all cases, cells were 80-100% confluent during the conditioning of the matrix. Alternatively, hESC-derived Lefty protein was seeded into Matrigel prior to polymerization. Human melanoma (C8161) or breast carcinoma (MDA-MB-231) cells, 2.5×10^5 cells/6-well dish, were subsequently exposed to this preconditioned matrix for 3 to 4 days.
as §1, with “primary antibody (Table 2),” for “anti-Nodal or anti-Lefty antibodies (Polyclonal rabbit anti-Nodal (H-110) 1:500 Santa Cruz Biotechnology, Santa Cruz, Calif.; Polyclonal goat anti-Lefty 1:500 R&D Systems, Minneapolis, Minn.),”, “TBS-T or TBS-T containing 0.5M NaCl for the Nodal Westerns,” for “TBS-T,”, “Nodal often appeared as multiple bands, likely due to degradation of protein modifications. All experiments were done at least three times.” left out

Notch 1, 2 and 4 = assay: Notch expression, Western blot in C8161 cells
Description: Western blot analysis of C8161 cells 72 hrs following the administration of siRNA. […] Western blot analysis of Notch 1, 2 and 4 in C8161 cells treated with the Nodal inhibitor SB431542.

VE-Cadherin, Keratin 18 = assay: Western blot of vasculogenic mimicry plasticity biomarkers in C8161 cells; conditions: C8161 cells on 3-D collagen I matrices for 6 days
Method: (A) Western blot analyses of Nodal, phosphorylated SMAD-2, total SMAD 2/3, and Actin in C8161 cells 48 hours after administration of either vehicle or an ALK 4/5/7 inhibitor (SB431542, 1 μM, 10 μM). […] (B) Western blot analyses of Nodal, Tyrosinase and Actin in C8161 cells 24 hours after the administration of either vehicle or different concentrations of ALK inhibitor while (C) is a Western analyses for VE-Cadherin, Keratin 18 and Actin in C8161 cells cultured on 3-D collagen I matrices for 6 days in the presence of vehicle or different concentrations of ALK inhibitor.

Lefty = Lefty knockdown in hESCs with FITC-tagged Morpholinos (microscopy, Western blot)
Description: Cancer cells were also exposed to Matrigel conditioned by hESCs in which Lefty protein expression was knocked down with FITC-tagged Morpholino oligonucleotides specific for Lefty-A and Lefty-B (MO^LEFTY). […] The expression of Oct-3/4 and Nanog, representative of hESC pluripotency, was not affected during this time, and the morphology of the hESC colonies was not altered.
Nodal, and Lefty protein expression were inhibited using anti-sense Morpholino oligonucleotides (Gene Tools Inc., Philomath, Oreg.). The Morpholino sequences were selected based on manufacturer's recommendations (21-25 mer antisense). Fluoroscein (FITC)-conjugated control (5′-[…]-3′) [SEQ ID NO: 19], Nodal (5′-[…]-3′) [SEQ ID NO: 20], Lefty-A (5′-[…]-3′) [SEQ ID NO: 21], and Lefty-B (5′[…]-3′) [SEQ ID NO: 22]. Morpholinos (20 μM) were delivered using the scrape method. Topczewska et al., 2006. Cancer cells were sorted for FITC and were recovered for 1 day prior to experimentation.

H9 hESCs = assay: hESC pluripotency (Oct-3/4 and Nanog expression, colony morphology); conditions: Oct-3/4, Nanog
Description: (A) An abundance of the Nodal inhibitor Lefty within the hESC conditioned matrices (CMTX). Lefty protein is absent in the C8161 cells within its own conditioned matrix (C8161+CMTX). (B) Immunofluorescence localization of FITC-conjugated anti Lefty Morpholinos (MO^LEFTY) in H9 hESC colonies on Matrigel. (C) Western blot analysis of Lefty protein in H9 hESCs treated with either vehicle (Control), MO^Control (MO Control), or MO^Lefty (MO Lefty). Actin is used as a loading control. (D) Real Time RT-PCR analysis of Oct-3/4 and Nanog expression in H9 hESCs treated with either vehicle (H9), MO^CONTROL (MO Control), or MO^LEFTY (MO Lefty). Gene levels were normalized using 18s and bars represent mean gene expression normalized to H9. (E) Real Time RT-PCR analysis of Nodal mRNA expression in C8161 cells cultured for 3 days on control (unconditioned) Matrigel, Matrigel conditioned by hESCs (H9 CMTX) or Matrigel conditioned by hESCs in which Lefty protein expression was […] with Lefty-specific Morpholinos (H9 CMTX MO Lefty). (F) Western blot analysis of Nodal protein in human metastatic melanoma (C8161) and breast carcinoma (MDA-MB-231) cells exposed for 3 days to either control (unconditioned) Matrigel or to Matrigel seeded with Lefty protein purified from hESCs (H9-derived Lefty). […]

C8161 cells [3] = assay: Anchorage independent growth / soft agar colony formation, C8161; conditions: 100 ng/mL
Method: (§2) An in vitro colony forming assay was used to analyze colony-forming ability of poorly aggressive C81-61 cells, aggressive C8161 cells, C8161 cells treated with MONodal and C8161 cells treated with MONodal and rescued with recombinant Nodal (100 ng/mL). The assay was conducted using 50,000 cells suspended in 0.35% agarose in RPMI containing 10% serum, which were plated into 6-well dishes on 0.5% agar in the same medium. Colonies grew, and pictures were taken at day 7. After 2 weeks, colonies were stained with Crystal Violet and counted.
(§3) Clonogenicity of cells are assessed as previously described. Hamburger, A. W., and Salmon, S. E., 1977, Science 197:461-463. Each parameter is tested in triplicate for clone formation in soft agar. Briefly, […] are plated in 60 mm Petri dishes in complete medium placed over the soft agar. On specific days after the cells are plated, phase contrast images of the colonies are taken using a Zeiss Axiovert 25 with an Hitachi HCV-20 color camera.
(§4) Anchorage independent growth assays were conducted as previously described. Topczewska et al., 2006, Nat. Med. 12: 925-932.

C81-61 cells = assay: Soft agar colony formation, C81-61; conditions: C81-61 cell line
Method: as §2, §3

MDA-MB-231 cells = assay: Anchorage independent growth / soft agar colony formation, MDA-MB-231; conditions: 100 ng/mL
Method: as §3, §4

## NC(=O)c1ccc(-c2nc(-c3ccc4c(c3)OCO4)c(-c3ccccn3)[nH]2)cc1 [SB431542]
C8161 cells [1]
  vasculogenic mimicry: abrogation
C8161 cells [2]
  invasive ability: reduction
Nodal; C8161 cells, 1 μM, 10 μM, 48 hours
  Nodal expression: down-regulation
Notch 1, 2 and 4
  Notch expression: relatively unaffected
VE-Cadherin, Keratin 18
  expression of vasculogenic mimicry plasticity biomarkers: reduction

## MO^LEFTY: FITC-tagged Morpholino oligonucleotides specific for Lefty-A and Lefty-B (SEQ ID NO: 21, 22) (chain 1 GCCACATGGTGCTGCCCTGGG; chain 2 CTGCATGGTGCTGCCCTGGAGGA; all phosphorodiamidate morpholino (PMO); FITC (fluorescein) conjugated, position not given here)
Lefty; H9 hESCs, Western blot, for up to 3 days
  Lefty protein expression in hESCs: efficiently knocked down
Lefty; microscopy of treated hESC colonies
  hESC colonies in which the fluorescently-tagged Morpholinos could be detected: over 75%
H9 hESCs
  stem cell differentiation: did not induce stem cell differentiation

B1: rLefty: recombinant Lefty-B (R&D Systems) (protein, UniProt O75610 77-366, looked up)
Left-right determination …: RFSQSFREVAGRFLALEASTHLLVFGMEQRLPPNSELVQAVLRLFQEPVPKAALHRHGRLSPRSARARVTVEWLRVRDDGSNRTSLIDSRLVSVHESGWKAFDVTEAVNFWQQLSRPRQPLLLQVSVQREHLGPLASGAHKLVRFASQGAPAGLGEPQLELHTLDLGDYGAQGDCDPEAPMTEGTRCCRQEMYIDLQGMKWAENWVLEPPGFLAYECVGTCRQPPEALAFKWPFLGPRQCIASETDSLPMIVSIKEGGRTRPQVVSLPNMRVQKCSCASDGALVPRRLQP
Nodal; C8161 cells
  dose needed to inhibit Nodal protein relative to hESC counterpart: higher doses
Nodal; C8161 cells exposed 48 hrs to 0-1000 ng/mL
  Nodal expression: reduces

B2: recombinant Nodal: recombinant Nodal (R&D Systems) (protein, UniProt Q96S42 238-347, looked up)
Nodal homolog: HHLPDRSQLCRKVKFQVDFNLIGWGSWIIYPKQYNAYRCEGECPNPVGEEFHPTNHAYIQSLLKRYQPHRVPSTCCAPVKTKPLSMLYVDNGRVLLDHHKDMIVEECGCL
C8161 cells [3]; C8161 cells exposed to H9 CMTX
  rescue of inhibition of in vitro clonogenicity: partially rescued
C8161 cells [3]; C8161 cells exposed to H9 Lefty-containing matrix
  rescue of inhibition of in vitro clonogenicity: completely rescued
C8161 cells [3]; C8161 cells treated with MONodal
  rescue of reduced colony formation: rescued
C81-61 cells
  colony formation: did not induce colony formation
MDA-MB-231 cells; MDA-MB-231 cells exposed to H9 CMTX
  rescue of inhibition of in vitro clonogenicity: partially rescued
MDA-MB-231 cells; MDA-MB-231 cells exposed to H9 Lefty-containing matrix
  rescue of inhibition of in vitro clonogenicity: completely rescued
